Experimental data as given in ChEMBL document CHEMBL3856240, “Structural determinants of diphenethylamines for interaction with the κ opioid receptor: Synthesis, pharmacology and molecular modeling studies” (Bioorg Med Chem Lett, 2016).
pEC50, pKi: −log10 of the molar value.

Experiments:
[1] = molecular target: T1, Kappa-type opioid receptor (Homo sapiens, UniProt P41145); test: Agonist activity at human kappa opioid receptor expressed in CHO cell membranes after 60 mins by [35S]GTPgammaS assay relative to U69,593; conditions: 1 h, read-out: %max
T1 sequence (P41145 whole entry): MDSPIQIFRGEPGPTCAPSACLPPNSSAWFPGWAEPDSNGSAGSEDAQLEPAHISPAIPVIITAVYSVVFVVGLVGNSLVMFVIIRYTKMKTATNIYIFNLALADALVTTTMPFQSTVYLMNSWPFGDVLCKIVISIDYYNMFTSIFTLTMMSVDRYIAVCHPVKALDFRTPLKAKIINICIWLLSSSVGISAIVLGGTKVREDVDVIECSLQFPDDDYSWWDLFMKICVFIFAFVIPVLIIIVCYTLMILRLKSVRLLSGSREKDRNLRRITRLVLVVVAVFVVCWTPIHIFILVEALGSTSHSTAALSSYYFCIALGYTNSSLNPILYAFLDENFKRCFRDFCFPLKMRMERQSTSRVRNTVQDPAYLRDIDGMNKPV

[2] = molecular target: T1, Kappa-type opioid receptor; test: Agonist activity at human kappa opioid receptor expressed in CHO cell membranes after 60 mins by [35S]GTPgammaS assay
Mu-type opioid receptor = Mu-type opioid receptor (Homo sapiens, UniProt P35372); test: Displacement of [3H]DAMGO from human mu opioid receptor expressed in CHO cell membranes after 60 mins by liquid scintillation counting
Chain of Mu-type opioid receptor (P35372 whole entry): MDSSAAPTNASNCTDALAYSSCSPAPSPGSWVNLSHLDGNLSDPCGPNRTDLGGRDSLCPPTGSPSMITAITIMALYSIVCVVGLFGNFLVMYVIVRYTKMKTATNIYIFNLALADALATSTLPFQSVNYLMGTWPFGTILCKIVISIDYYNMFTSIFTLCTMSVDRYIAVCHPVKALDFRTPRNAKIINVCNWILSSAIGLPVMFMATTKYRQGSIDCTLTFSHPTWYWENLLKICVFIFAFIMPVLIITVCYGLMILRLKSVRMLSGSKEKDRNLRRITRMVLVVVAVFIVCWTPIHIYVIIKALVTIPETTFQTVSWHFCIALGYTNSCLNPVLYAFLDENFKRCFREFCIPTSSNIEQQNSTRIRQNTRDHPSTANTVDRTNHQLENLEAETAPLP

[3] = molecular target: T1, Kappa-type opioid receptor; test: Displacement of [3H]U69,593 from human kappa opioid receptor expressed in CHO cell membranes after 60 mins by liquid scintillation counting
[4] = molecular target: Delta-type opioid receptor (Homo sapiens, UniProt P41143); test: Displacement of [3H]pCl-DPDPE from human delta opioid receptor expressed in CHO cell membranes after 60 mins by liquid scintillation counting
Chain of Delta-type opioid receptor (P41143 whole entry): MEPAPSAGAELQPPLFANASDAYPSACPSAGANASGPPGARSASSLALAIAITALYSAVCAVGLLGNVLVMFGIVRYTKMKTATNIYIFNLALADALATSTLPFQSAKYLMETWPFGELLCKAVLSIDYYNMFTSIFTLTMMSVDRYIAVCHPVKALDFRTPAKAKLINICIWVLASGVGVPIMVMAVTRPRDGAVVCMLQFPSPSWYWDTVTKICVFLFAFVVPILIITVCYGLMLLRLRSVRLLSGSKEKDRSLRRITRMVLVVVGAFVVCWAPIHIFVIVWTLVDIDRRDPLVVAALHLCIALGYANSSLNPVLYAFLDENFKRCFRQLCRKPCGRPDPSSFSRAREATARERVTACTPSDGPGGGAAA

[5] = molecular target: T1, Kappa-type opioid receptor; conditions: CHO
Description: Antagonist activity at human kappa opioid receptor expressed in CHO cell membranes assessed as inhibition of U69,593 stimulated [35S]GTPgammaS binding after 60 mins

Row | SMILES | Emax [1] [%] | pEC50 [2] | pKi (Mu-type opioid receptor) | pKi [3] | pKi [4] | Ke [5] [nM]
1 | Oc1ccc(CCN(CCc2ccccc2)CC2CCC2)cc1 | 43.8 | 6.96 | 6.14 | 7.44 | 5.67 | –
2 | Oc1cccc(CCN(CCc2ccccc2)CCc2ccccc2)c1 | – | < 5.00 | < 5.00 | 6.68 | < 5.00 | 1310
3 | Oc1ccc(CCN(CCc2ccccc2)CC2CC2)cc1 | – | < 5.00 | 5.76 | 6.66 | 5.66 | 32.1
